target: T1, MNK2 (Homo sapiens, UniProt Q9HBH9); experiment: Mnk2a in vitro kinase assay (indirect fluorescence polarization); type: biochemical; conditions: pre-activated GST-Mnk2a 2.5 nM, 20 μM ATP, 30 μM substrate peptide
T1 construct: the open reading frames of human Mnk1 and Mnk2a were amplified from cDNA; made in house; host or cells: E. coli BL21
Procedure: Inhibitory potency of compounds against Mnk1, Mnk2a and other kinases was assessed with assays based on a format known to those skilled in the art as the indirect (competitive) fluorescence polarization. The assay detection system comprises a small fluorophore-labeled phospho-peptide (termed ligand) bound to a phospho-specific antibody. The product generated by the kinase reaction competes with the ligand for antibody binding. Based on the larger molecular volume of the bound ligand, which results in a lower rotation rate in solution, its emitted light has a higher degree of polarization than the one from the free ligand.
Example 2a. Mnk1 and Mnk2a in vitro kinase assay
As a source of enzyme, human Mnk1 and human Mnk2a were expressed as GST fusion proteins in E. coli, purified to >80% homogeneity by glutathione affinity chromatography and activated in vitro with pre-activated ERK2. In brief, the open reading frames of human Mnk1 and Mnk2a were amplified from cDNA using the forward/reverse primer pairs
(utilized restriction sites underlined), respectively, and cloned into the BamHI and SalI sites of the vector pGEX-4T1 (Amersham, Sweden, cat. no. 27-4580-01). These constructs allow prokaryotic expression of Mnk1 or Mnk2a as fusion protein with a N-terminal glutathione S-transferase (GST) tag, referred to as GST-Mnk1 or GSTMnk2a. The following expression and purification procedure was identical for GSTMnk1 and GST-Mnk2a, referring in general to GST-Mnk, when not distinguishing between the two isoforms. Expression of GST-Mnk was in E. coli BL21 (Merck Biosciences, Germany, cat. no. 69449). Cells were grown in LB-Bouillon (Merck, Germany, cat. no. 1.10285) supplemented with 100 μg/ml ampicillin (Sigma, Germany, cat. no. A9518) at 37° C. When the culture had reached a density corresponding to an A600 of 0.8, an equal volume of ice cold LB/ampicillin was added, the culture transferred to 25° C. and induced for 4 h with 1 mM isopropyl thiogalactoside (IPTG, Roth, Germany, cat. no. 2316.4). Cells harvested by centrifugation were resuspended in 10 ml lysis buffer (50 mM tris(hydroxymethyl)aminomethane hydrochloride (Tris/HCl, Sigma, Germany, cat. no. T5941) pH 7.5, 300 mM sodium chloride (NaCl, Sigma, Germany, cat. no. S7653), 5% (w/v) glycerol (Sigma, Germany, cat. no. G5516), 3 mM DTT dithiotreitol (DTT, Sigma, Germany, cat. no. D9779)) per gram wet weight cell pellet. Lysates were prepared by disruption of cells with a sonifier and subsequent clearing by centrifugation at 38000 g for 45 min at 4° C.
The lysate was applied to a GSTPrep FF 16/10 column (Amersham, Sweden, cat. no. 17-5234-01) equilibrated with lysis buffer. Removal of unbound material was with 3 column volumes (CV) lysis buffer. Elution was with 2 CV of elution buffer (50 mM Tris/HCl pH 7.5, 300 mM NaCl, 5% (w/v) glycerol, 20 mM glutathione (Sigma, Germany, cat. no. G4251)). Peak fractions were pooled and the protein transferred into storage buffer (50 mM Tris/HCl pH 7.5, 200 mM NaCl, 0.1 mM ethylene glycolbis(2-aminoethylether)-N,N,N′,N′-tetraacetic acid (EGTA, Aldrich, Germany, cat. no. 23, 453-2), 1 mM DTT, 10% (w/v) glycerol, 0.5 M sucrose (Sigma, Germany, cat. no. S0389) by gel filtration on a PD10 desalting column (Amersham, Sweden, cat. no. 17-0851-01). Aliquots were shock frozen in liquid nitrogen and stored at −80° C.
Activation of Mnk1 and Mnk2a was at a concentration of 2.5 μM of either purified GST-Mnk1 or GST-Mnk2a by incubation with 150 nM pre-activated NHis-ERK2 (see ERK2 assay for preparation) and 50 μM adenosine triphosphate (ATP, Sigma, cat. no. A2699) in a buffer comprising 20 mM N-(2-hydroxyethyl)piperazine-N′-(2-ethanesulfonic acid) (HEPES, Fluka, Germany, cat. no 54459)/potassium hydroxide (KOH, Roth, Germany, cat. no 6751.1) pH 7.4, 10 mM magnesium chloride (MgCl2, Sigma, Germany, cat. no. M2670), 0.25 mM DTT, 0.05% (w/v) polyoxyethylene 20 stearylether (Brij 78, Sigma, Germany, cat. no. P4019) (HMDB buffer) for 45 min at 30° C. […]

T1 sequence (Q9HBH9 whole entry): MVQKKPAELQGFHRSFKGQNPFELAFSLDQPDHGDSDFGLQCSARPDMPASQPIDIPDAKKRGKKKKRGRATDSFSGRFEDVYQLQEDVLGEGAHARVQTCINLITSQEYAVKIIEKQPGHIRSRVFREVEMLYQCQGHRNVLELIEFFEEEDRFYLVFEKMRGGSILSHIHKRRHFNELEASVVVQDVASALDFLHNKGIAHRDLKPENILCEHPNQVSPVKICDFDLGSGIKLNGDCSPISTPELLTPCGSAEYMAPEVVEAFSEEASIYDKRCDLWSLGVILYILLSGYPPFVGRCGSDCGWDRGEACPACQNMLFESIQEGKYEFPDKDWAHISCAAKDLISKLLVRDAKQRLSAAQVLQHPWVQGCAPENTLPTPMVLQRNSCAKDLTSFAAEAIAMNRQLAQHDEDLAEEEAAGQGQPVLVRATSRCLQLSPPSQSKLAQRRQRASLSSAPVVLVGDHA

SMILES | IC50
CC(=O)N(C)[C@H]1CC[C@@H](Oc2cc(F)ccc2Nc2ncnc3sc(C(N)=O)c(C)c23)CC1 [Example 10] | 2500 nM
Cc1c(C(N)=O)sc2ncnc(Nc3ccc(F)cc3O[C@@H]3CCC[C@@H](O)[C@H]3O)c12 (relative stereo) [Example 2] | 21 nM
Cc1c(C(=O)NCCCN2CCCC2=O)sc2ncnc(Nc3ccc(F)cc3O[C@H]3CC[C@H](O)CC3)c12 [Example 271, 4-[4-Fluoro-2-(trans-4-hydroxy-cyclohexyloxy)-phenylamino]-5-methyl-thieno[2,3-d]pyrimidine-6-carboxylic acid [3-(2-oxo-pyrrolidin-1-yl)-propyl]amide] | 12 nM
CNC(=O)CNC(=O)c1sc2ncnc(Nc3ccc(F)cc3O[C@H]3CC[C@H](O)CC3)c2c1C [Example 164] | 16 nM
Cc1c(C(N)=O)sc2ncnc(Nc3ccc(F)cc3O[C@H]3CC[C@H](O)CC3)c12 [Example 158, 4-[4-Fluoro-2-(trans-4-hydroxy-cyclohexyloxy)-phenylamino]-5-methyl-thieno[2,3-d]pyrimidine-6-carboxylic acid amide] | 4 nM
Cc1c(C(=O)NCCCN2CCCC2)sc2ncnc(Nc3ccc(F)cc3OC3CCCCC3O)c12 (stereo not shown) [Example 263] | 175 nM
CC(=O)N[C@H]1C[C@H](Oc2cc(F)ccc2Nc2ncnc3sc(C(=O)NCC#N)c(C)c23)C1 [Example 241, 4-[2-(trans-3-Acetylamino-cyclobutoxy)-4-fluoro-phenylamino]-5-methyl-thieno[2,3-d]pyrimidine-6-carboxylic acid cyanomethyl-amide] | 49 nM
CO[C@H]1CCC[C@@H](Oc2ncccc2Nc2ncnc3sc(C(=O)NCCO)c(C)c23)C1 (racemic) [Example 122] | 18 nM
CO[C@@H]1CCC[C@@H](Oc2ncccc2Nc2ncnc3sc(C(=O)NCC#N)c(C)c23)C1 (racemic) [Example 136] | 44 nM
Cc1c(C(=O)NCCCN(C)C)sc2ncnc(Nc3ccc(F)cc3OC3CCC(F)(F)CC3)c12 [Example 34, 4-[2-(4,4-Difluoro-cyclohexyloxy)-4-fluoro-phenylamino]-5-methyl-thieno[2,3-d]pyrimidine-6-carboxylic acid (3-dimethylamino-propyl)-amide] | 28 nM
CO[C@@H]1CCCC[C@H]1Oc1cc(F)ccc1Nc1ncnc2sc(C(=O)O)c(C)c12 [Example 248, 4-[4-Fluoro-2-((1R,2R)-2-methoxy-cyclohexyloxy)-phenylamino]-5-methyl-thieno[2,3-d]pyrimidine-6-carboxylic acid] | 10 nM
CCNC(=O)c1sc2ncnc(Nc3ccc(F)cc3O[C@H]3CC[C@H](O)CC3)c2c1C [Example 173] | 14 nM
CO[C@H]1CCC[C@@H](Oc2ncccc2Nc2ncnc3sc(C(=O)NCc4cnco4)c(C)c23)C1 (racemic) [Example 114] | 19 nM
Cc1c(C(N)=O)sc2ncnc(Nc3ccc(F)cc3OC3C[C@@H](O)[C@H](O)C3)c12 (relative stereo) [Example 211] | 8 nM
Cc1c(C(N)=O)sc2ncnc(Nc3ccc(F)cc3OC3CCC3)c12 [Example 243, 4-(2-Cyclobutoxy-4-fluoro-phenylamino)-5-methyl-thieno[2,3-d]pyrimidine-6-carboxylic acid amide] | 9 nM
COC1CCCC(Oc2ncccc2Nc2ncnc3sc(C(=O)NCC#CCN(C)C)c(C)c23)C1 (stereo not shown) [Example 117] | 12 nM
Cc1c(C(=O)NCCCN(C)C)sc2ncnc(Nc3ccc(F)cc3OC3CCC(C)(C)CC3)c12 [Example 32, 4-[2-(4,4-Dimethyl-cyclohexyloxy)-4-fluoro-phenylamino]-5-methyl-thieno[2,3-d]pyrimidine-6-carboxylic acid (3-dimethylamino-propyl)-amide] | 36 nM
Cc1c(C(=O)NCCCO)sc2ncnc(Nc3ccc(F)cc3O[C@H]3CC[C@H](O)CC3)c12 [Example 172] | 16 nM

Continued by falling IC50, values first:

IC50 | SMILES
1140 nM | Cc1c(C(N)=O)sc2ncnc(Nc3ccc(F)cc3O[C@H]3CC[C@H](NC(=O)OC(C)(C)C)C3)c12 [Example 228, {(1S,3S)-3-[2-(6-Carbamoyl-5-methyl-thieno[2,3-d]pyrimidin-4-ylamino)-5-fluoro-phenoxy]-cyclopentyl}-carbamic acid tert-butyl ester]
440 nM | Cc1c(C(N)=O)sc2ncnc(Nc3ccc(F)cc3O[C@@H]3CCCC[C@H]3N(C)S(C)(=O)=O)c12 (racemic) [Example 13, Racemic 4-(4-Fluoro-2-(trans-2-(N-methylmethylsulfonamido)cyclohexyloxy)phenylamino)-5-methylthieno[2,3-d]pyrimidine-6-carboxamide]
140 nM | CO[C@H]1CCCC[C@@H]1Oc1cc(F)ccc1Nc1ncnc2sc(C(N)=O)c(C)c12 [Example 42, 4-[4-Fluoro-2-((1S,2S)-2-methoxy-cyclohexyloxy)-phenylamino]-5-methyl-thieno[2,3-d]pyrimidine-6-carboxylic acid amide]
93 nM | COC1CCCC(Oc2cc(F)ccc2Nc2ncnc3sc(C(=O)NC4CCN(C)CC4)c(C)c23)C1 (stereo not shown) [Example 86]
82 nM | Cc1c(C(N)=O)sc2ncnc(Nc3ccc(F)cc3O[C@H]3CC[C@H](N4CCOCC4)CC3)c12 [Example 26, 4-(4-Fluoro-2-(trans-4-morpholinocyclohexyloxy)phenylamino)-5-methylthieno[2,3-d]pyrimidine-6-carboxamide]
70 nM | CONC(=O)c1sc2ncnc(Nc3ccc(F)cc3O[C@H]3C[C@H](NC(C)=O)C3)c2c1C [Example 38]
53 nM | CO[C@H]1C[C@@H](Oc2cc(F)ccc2Nc2ncnc3sc(C(N)=O)c(C)c23)C[C@H]1OC [Example 216]
34 nM | Cc1c(C(=O)NC2CC2N)sc2ncnc(Nc3ccc(F)cc3OC3CCCC(O)C3)c12 (mixture of isomers) [Example 59]
24 nM | CCNC(=O)c1sc2ncnc(Nc3cccnc3O[C@@H]3CCC[C@H](OC)C3)c2c1C (racemic) [Example 130]
22 nM | CO[C@H]1CCC[C@@H](Oc2ncccc2Nc2ncnc3sc(C(=O)NCCCN4CCOCC4)c(C)c23)C1 (racemic) [Example 118]
16 nM | Cc1c(C(=O)NCC#CCN(C)C)sc2ncnc(Nc3ccc(F)cc3O[C@@H]3CCC[C@@H](O)C3)c12 (racemic) [Example 65]
14 nM | COCCN[C@H]1CC[C@H](Oc2cc(F)ccc2Nc2ncnc3sc(C(N)=O)c(C)c23)CC1 [Example 24, 4-(4-Fluoro-2-(trans-4-(2-methoxyethylamino)cyclohexyloxy)phenylamino)-5-methylthieno[2,3-d]pyrimidine-6-amide]
14 nM | Cc1c(C(=O)NCC#N)sc2ncnc(Nc3ccc(F)cc3O[C@@H]3CCC[C@@H](O)C3)c12 (racemic) [Example 63]
11 nM | CO[C@H]1CC[C@H](Oc2cc(F)ccc2Nc2ncnc3sc(C(=O)NCCCN4CCCC4=O)c(C)c23)CC1 [Example 279]
9 nM | Cc1c(C(=O)NCC#N)sc2ncnc(Nc3ccc(F)cc3O[C@H]3CC[C@H](O)CC3)c12 [Example 163]
7 nM | CO[C@H]1CC[C@H](Oc2cc(F)ccc2Nc2ncnc3sc(C(=O)NCCCN(CCO)CCO)c(C)c23)CC1 [Example 278]
